Assay results: the NIST ThermoML archive (doi:10.1016/j.tca.2016.06.022)

Columns and labels:
[1] = 101 kPa, Liquid, Vibrating tube method
[2] = xn = mol fraction of the nth substance listed; conditions: 101 kPa, Liquid, Vibrating tube method, x2 = 0

NCCN [ethane-1,2-diamine]
[1]
Conditions	mass density [kg/m3]
288.15 K	901.26
298.15 K	891.9
308.15 K	882.49
323.15 K	868.23
333.15 K	858.6

O [water]
[1]
Conditions	mass density [kg/m3]
274.15 K	999.899
275.15 K	999.94
276.15 K	999.964
277.15 K	999.972
278.15 K	999.964
279.15 K	999.94
280.15 K	999.901
281.15 K	999.848
282.15 K	999.781
283.15 K	999.699
323.15 K	988.03
333.15 K	983.191

O [water] + NCCN
[2]
Conditions	mass density [kg/m3]
274.15 K	999.899
275.15 K	999.94
276.15 K	999.964
277.15 K	999.972
278.15 K	999.964
279.15 K	999.94
280.15 K	999.901
281.15 K	999.848
282.15 K	999.781
283.15 K	999.699
323.15 K	988.03
333.15 K	983.191
